In US20240124470A1, “FIVE-MEMBERED RING DERIVATIVE AND MEDICAL USE THEREOF” (SICHUAN HAISCO PHARMACEUTICAL CO., LTD., priority 2020, published 2024):

Tests used:
[1] = target: T1, hERG potassium channel (Homo sapiens, UniProt Q12809); test: Effects on hERG potassium channels, manual whole cell patch-clamp in CHO cells; assay type: cell-based; settings: hERG potassium current, room temperature
T1 construct: expressed in transfected cells
Text: 2. Effects of the Compounds on hERG Potassium Channels
Experimental platform: electrophysiological manual patch-clamp system
Cell line: Chinese hamster ovary (CHO) cells stably expressing hERG potassium ion channel
Experimental method: For CHO (Chinese Hamster Ovary) cells stably expressing hERG potassium channel, whole cell patch-clamp technique was used to recorded hERG potassium channel current at room temperature in this experiment. The glass microelectrode is made of a glass electrode blank (BF150-86-10, Sutter) by a puller. The tip resistance after filling the liquid in the electrode is about 2-5 MΩ. The glass microelectrode can be connected to the patch-clamp amplifier by inserting the glass microelectrode into an amplifier probe. The clamping voltage and data recording are controlled and recorded by the pClamp 10 software through a computer. The sampling frequency is 10 kHz, and the filtering frequency is 2 kHz. After the whole cell records were obtained, the cells were clamped at −80 mV, and the step voltage that induced the hERG potassium current (IhERG) was depolarized from −80 mV to +20 mV for 2 s, then repolarized to −50 mV, and returned to −80 mV after 1 s. This voltage stimulation was given every 10 s, and the administration process was started after the hERG potassium current was confirmed to be stable (at least 1 minute). The compound was administered for at least 1 minute at each test concentration, and at least 2 cells (n≥2) were tested at each concentration.
Data analysis processing was carried out by using pClamp 10, GraphPad Prism 5 and Excel software. The inhibition degree of hERG potassium current (peak value of hERG tail current induced at −50 mV) at different compound concentrations was calculated by the following formula: Inhibition %=[1−(I/Io)]×100%.
Among the formula, Inhibition % represents the percentage of inhibition of hERG potassium current by the compound, and I and Io represent the amplitude of hERG potassium current after and before dosing, respectively.
Compound IC50 was calculated using GraphPad Prism 5 software by fitting according to the following equation:
Y=Bottom+(Top−Bottom)/(1+10^((LogIC50−X)×HillSlope))
Among the equation, X represents the Log value of the tested concentration of the test sample, Y represents the inhibition percentage at the corresponding concentration, and Bottom and Top represent the minimum and maximum inhibition percentage, respectively.

[2] = Evaluation of pharmacokinetics in mice; assay type: in vivo; settings: male, mouse, plasma, oral; C57 mice, intravenous 5 mg/kg and intragastric 20 mg/kg
Protocol: Evaluation of Pharmacokinetics in Mice
Male C57 mice (purchased from Hunan SJA Laboratory Animal Co., Ltd, license number: SCXK (Xiang) 2019-0004), 20-25 g, were fasted overnight. On the day of the experiment, 18 male C57 mice were divided into 2 groups, with 9 mice in each group. The test compound was administered intravenously and intragastrically at doses of 5 mg/kg and 20 mg/kg respectively. Before administration and 5 min, 15 min, 30 min, 1 h, 2 h, 4 h, 6 h, 8 h and 24 h after administration, 0.1 ml of blood was collected from the orbital venous plexus, placed in an EDTAK2 centrifuge tube, and centrifuged at 6000 rpm at 4° C. for 5 min, and then the plasma was collected. The plasma sample was added to an acetonitrile solution containing an internal standard (dexamethasone, 500 ng/mL), vortexed and centrifuged at 10,000 rpm for 10 min, and the supernatant was taken for LC-MS/MS analysis. Pharmacokinetic parameters were calculated using the non-compartmental model in WinNonlin Version 8.0 (Pharsight, Mountain View, CA) pharmacokinetic software.

[3] = Evaluation of pharmacokinetics in cynomolgus monkeys; assay type: in vivo; settings: intravenous 2 mg/kg and intragastric 10 mg/kg
Protocol: Evaluation of Pharmacokinetics in Cynomolgus Monkeys
Male cynomolgus monkeys (raised in Suzhou LEOLAB Bio Tech. Co., Ltd.), weighing 3-5 kg, were fasted overnight (14-18 h), […]. On the day of the experiment, 6 male cynomolgus monkeys were divided into 2 groups, with 3 […] in each group. The test compound was administered intravenously and intragastrically at doses of 2 mg/kg and 10 mg/kg respectively. Before administration and 5 min, 15 min, 30 min, 1 h, 2 h, 4 h, 6 h, 8 h 10 h, 12 h and 24 h after administration, 1 ml of blood was collected via the limb vein, placed in an EDTAK2 centrifuge tube, and centrifuged at 6000 rpm at 4° C. for 5 min, and then the plasma was collected. The plasma sample was added to an acetonitrile solution containing an internal standard (dexamethasone, 500 ng/mL), vortexed and centrifuged at 10,000 rpm for 10 min, and the supernatant was taken for LC-MS/MS analysis. Pharmacokinetic parameters were calculated using the non-compartmental model in WinNonlin Version 8.0 (Pharsight, Mountain View, CA) pharmacokinetic software. Conclusion: The compounds of the present invention have good metabolic properties.

[4] = target: T2, CYP2C19 (Homo sapiens, UniProt P33261); test: Cytochrome P450 isoenzyme inhibition test, human liver microsomes: CYP2C19; assay type: in vitro ADME; settings: human liver microsomes 0.1 mg/mL; read-out: IC50, inhibitory activity on CYP2C19
T2 construct: pre-incubated with the human liver microsome solutions containing 5 enzyme mixed substrates; from tissue; host or cells: human liver microsomes
T2 sequence (P33261 whole entry): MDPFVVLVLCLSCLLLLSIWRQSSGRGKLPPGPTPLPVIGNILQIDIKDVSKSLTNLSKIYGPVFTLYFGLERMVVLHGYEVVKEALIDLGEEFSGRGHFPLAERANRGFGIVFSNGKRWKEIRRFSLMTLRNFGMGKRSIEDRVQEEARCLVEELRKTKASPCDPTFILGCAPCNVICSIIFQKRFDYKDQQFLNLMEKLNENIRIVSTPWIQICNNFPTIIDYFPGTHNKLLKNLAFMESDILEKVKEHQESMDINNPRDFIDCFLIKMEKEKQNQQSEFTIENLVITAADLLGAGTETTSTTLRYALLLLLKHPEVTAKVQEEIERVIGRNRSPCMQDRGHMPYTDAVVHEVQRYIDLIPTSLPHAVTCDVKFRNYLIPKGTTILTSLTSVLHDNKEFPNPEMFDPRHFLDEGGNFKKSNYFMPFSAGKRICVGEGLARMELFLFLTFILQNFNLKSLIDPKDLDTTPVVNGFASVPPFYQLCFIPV
Protocol: (§1) 9. Cytochrome P450 Isoenzyme Inhibition Test Experimental objective: The inhibitory effect of the test compound on the activity of human liver microsomal cytochrome P450 isoenzyme (CYP1A2, CYP2C19, CYP2D6 and CYP3A4) was determined. Experimental operation: The test compound at an incubation concentration of 0, 0.03, 0.1, 0.3, 1, 3, 10, 30 and 100 μM was pre-incubated with the human liver microsome solutions containing 5 enzyme mixed substrates (liver microsome concentration: 0.1 mg/mL) in a water bath at 37° C. for 10 min, respectively, and then a coenzyme factor (NADPH) was added to start the reaction. After incubation in a water bath at 37° C. for 10 min, the reaction was terminated by adding glacial acetonitrile solution containing an internal standard, shaken for 1 min, centrifuged at 4° C. and 10,000 rpm for 10 min, and the supernatant was taken for LC/MS/MS analysis. The amount of metabolites produced by each CYP enzyme substrate was detected. The activity of each CYP isoenzyme was reflected by the production rate of each metabolite. […]

[5] = target: T3, CYP2D6 (Homo sapiens, UniProt P10635); test: Cytochrome P450 isoenzyme inhibition test, human liver microsomes: CYP2D6; assay type: in vitro ADME; settings: human liver microsomes 0.1 mg/mL; read-out: IC50, inhibitory activity on CYP2D6
T3 construct: pre-incubated with the human liver microsome solutions containing 5 enzyme mixed substrates; from tissue; host or cells: human liver microsomes
T3 sequence (P10635 whole entry): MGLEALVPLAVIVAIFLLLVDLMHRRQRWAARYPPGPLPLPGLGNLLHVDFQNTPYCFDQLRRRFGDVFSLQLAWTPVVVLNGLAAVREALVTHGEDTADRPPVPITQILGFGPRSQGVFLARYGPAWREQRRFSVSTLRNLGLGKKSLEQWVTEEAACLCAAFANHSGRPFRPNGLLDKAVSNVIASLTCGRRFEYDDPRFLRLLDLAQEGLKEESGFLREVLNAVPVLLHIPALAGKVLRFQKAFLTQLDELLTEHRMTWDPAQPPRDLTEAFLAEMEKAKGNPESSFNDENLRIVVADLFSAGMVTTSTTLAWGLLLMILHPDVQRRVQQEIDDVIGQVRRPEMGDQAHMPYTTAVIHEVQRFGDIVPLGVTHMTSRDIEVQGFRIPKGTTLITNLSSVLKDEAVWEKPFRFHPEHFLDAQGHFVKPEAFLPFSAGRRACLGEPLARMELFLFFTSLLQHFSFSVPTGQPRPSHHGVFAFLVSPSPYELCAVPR
Protocol: as §1

T1 sequence (Q12809 whole entry): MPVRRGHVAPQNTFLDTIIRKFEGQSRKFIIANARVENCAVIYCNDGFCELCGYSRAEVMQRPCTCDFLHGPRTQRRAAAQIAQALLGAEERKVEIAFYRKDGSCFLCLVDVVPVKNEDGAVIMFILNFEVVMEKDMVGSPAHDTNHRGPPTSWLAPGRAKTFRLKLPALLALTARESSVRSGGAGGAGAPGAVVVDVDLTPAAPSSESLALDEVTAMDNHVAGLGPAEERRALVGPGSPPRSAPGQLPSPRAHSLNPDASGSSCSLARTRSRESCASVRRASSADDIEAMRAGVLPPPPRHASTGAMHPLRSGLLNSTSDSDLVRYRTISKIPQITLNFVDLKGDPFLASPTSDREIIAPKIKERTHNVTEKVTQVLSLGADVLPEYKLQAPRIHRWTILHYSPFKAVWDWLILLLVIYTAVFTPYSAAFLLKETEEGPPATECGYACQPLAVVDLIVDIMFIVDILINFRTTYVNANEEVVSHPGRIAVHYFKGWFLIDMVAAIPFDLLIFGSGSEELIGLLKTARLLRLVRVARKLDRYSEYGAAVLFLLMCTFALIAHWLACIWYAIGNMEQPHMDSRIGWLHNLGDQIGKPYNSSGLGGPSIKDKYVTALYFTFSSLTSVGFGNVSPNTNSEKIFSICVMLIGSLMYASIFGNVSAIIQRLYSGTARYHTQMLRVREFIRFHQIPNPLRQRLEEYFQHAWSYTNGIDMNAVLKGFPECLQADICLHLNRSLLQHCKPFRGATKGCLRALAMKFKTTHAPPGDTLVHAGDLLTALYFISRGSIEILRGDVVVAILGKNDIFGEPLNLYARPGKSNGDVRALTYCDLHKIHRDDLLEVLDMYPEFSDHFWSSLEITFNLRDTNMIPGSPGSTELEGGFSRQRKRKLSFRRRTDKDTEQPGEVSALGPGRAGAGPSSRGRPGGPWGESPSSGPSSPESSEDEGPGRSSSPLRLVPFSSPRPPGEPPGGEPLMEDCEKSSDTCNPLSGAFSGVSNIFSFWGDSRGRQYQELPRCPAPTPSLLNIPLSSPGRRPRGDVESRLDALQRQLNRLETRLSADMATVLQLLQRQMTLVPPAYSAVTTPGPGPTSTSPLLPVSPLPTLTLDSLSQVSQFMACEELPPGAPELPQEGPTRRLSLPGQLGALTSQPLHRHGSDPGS

**Q.** With N#Cc1ccc(COc2cccc(-c3ccc(Cc4nc5sc(C(=O)O)cc5n4C[C@@H]4CCO4)c(F)c3)n2)c(F)c1 [Compound 6, (S)-2-(4-(6-((4-cyano-2-fluorobenzyl)oxy)pyridin-2-yl)-2-fluorobenzyl)-1-(oxetan-2-ylmethyl)-1H-thieno[2,3-d]imidazole-5-carboxylic acid] as the compound, how does the IC50 [1] read?
**A.** Its IC50 is greater than 40 µM.

**Q.** What about the bioavailability [2] of the same compound?
**A.** Its bioavailability is greater than 25%.

**Q.** What about the “clearance rate in monkeys” value [3] of the same compound?
**A.** The value was “low clearance rate”.

**Q.** And the half-life in monkeys [3]?
**A.** Its half-life in monkeys is “long half-life”.

**Q.** What about the IC50 [4] of the same compound?
**A.** The IC50 was greater than 50 µM.

**Q.** What about the IC50 [5] of the same compound?
**A.** The IC50 was greater than 50 µM.
